Results as given in publication PMC9820316, “Novel Arylpiperazine Derivatives of Salicylamide with α1-Adrenolytic Properties Showed Antiarrhythmic and Hypotensive Properties in Rats” (International Journal of Molecular Sciences, 2022).

System: aconitine-induced arrhythmia model in rats
Test: Prophylactic antiarrhythmic activity in aconitine-induced arrhythmia
Assay type: in vivo, rat
Details: 5 mg/kg iv 15 min before aconitine 20 μg/kg; number of animals with event
Procedure: The animals were anesthetized with thiopental (75 mg/kg ip). Depending on the model, either adrenaline, aconitine, or calcium chloride was used as an arrhythmogen. Adrenaline and aconitine were administered iv at a dose of 20 µg/kg, whereas calcium chloride was administered at a dose of 140 mg/kg to induce heart rhythm disturbances. The tested compounds were injected iv 15 min before the arrhythmogen. Aspel ASCARD apparatus (standard II lead, with the tape speed 50 mm/s and voltage calibration 1 mV = 1 cm) was used for ECG measurements. […] The ED50 was calculated using the method of Litchfield and Wilcoxon.

| SMILES | Blocks | Bradycardia | Extrasystoles | Fibrillations | Mortality |
| --- | --- | --- | --- | --- | --- |
| COc1ccccc1N1CCN(Cc2ccc(COc3ccccc3C(N)=O)cc2)CC1.Cl [JJGW12, 2-[(4-{[4-(2-metoxyphenyl)piperazin-1-ylo]methyl}phenyl)metoxy}benzamide hydrochloride] | 5/6 | 6/6 | 6/6 | 5/6 | 6/6 |
| Cl.NC(=O)c1ccccc1OCCCCCCN1CCN(c2cccc(Cl)c2)CC1 [JJGW03, 2-{6-[4-(3-chlorophenyl)piperazin-1-ylo]hexoxy}benzamide hydrochloride] | 6/6 | 6/6 | 6/6 | 6/6 | 6/6 |
| Cl.NC(=O)c1ccccc1OCCCCN1CCN(c2cccc(Cl)c2)CC1 [JJGW01, 2-{4-[4-(3-chlorophenyl)piperazin-1-ylo]butoxy}benzamide hydrochloride] | 6/6 | 6/6 | 5/6 | 6/6 | 6/6 |
| Cl.NC(=O)c1ccccc1OCCCCCN1CCN(c2cccc(Cl)c2)CC1 [JJGW02, 2-{5-[4-(3-chlorophenyl)piperazin-1-ylo]pentoxy}benzamide hydrochloride] | 6/6 | 6/6 | 6/6 | 6/6 | 6/6 |
| COc1ccccc1N1CCN(Cc2cccc(COc3ccccc3C(N)=O)c2)CC1.Cl [JJGW11, 2-[(3-{[4-(2-metoxyphenyl)piperazin-1-ylo]methyl}phenyl)metoxy}benzamide hydrochloride] | 6/6 | 6/6 | 5/6 | 4/6 | 6/6 |
